Measurements: US20210238225A1, “PEPTIDOMIMETIC INHIBITORS OF THE PEPTIDYL-PROLYL CIS/TRANS ISOMERASE (PIN1)” (DANA-FARBER CANCER INSTITUTE, INC., priority 2018, published 2021)
Read-outs that look alike come from different tables or passages of the source. Non-standard residues stand in square brackets, D forms with d. Residues, ends and D or L forms follow the SMILES beside them. *: point of attachment. alloThr(PO3H2) = C[C@H](OP(=O)(O)O)[C@H](N)C(=O)O; Phe(F5) = N[C@@H](Cc1c(F)c(F)c(F)c(F)c1F)C(=O)O; 2Nal = N[C@@H](Cc1ccc2ccccc2c1)C(=O)O; Met(O2) = CS(=O)(=O)CC[C@H](N)C(=O)O; X2 = C[C@H]1NC(=O)N[C@H]1CCCCCC(=O)*; NH(4-Me-benzyl) = Cc1ccc(CN*)cc1; NMeF = CN[C@@H](Cc1ccccc1)C(=O)O; hPhe = N[C@@H](CCc1ccccc1)C(=O)O; Cit = NC(=O)NCCC[C@H](N)C(=O)O; aThr = C[C@H](O)[C@H](N)C(=O)O; Pip = O=C(O)[C@@H]1CCCCN1; Piperidide = C1CCN(*)CC1; βNA = c1ccc2cc(N*)ccc2c1; X6 = CC(Cl)C(=O)*; ClAc = O=C(CCl)*

Biological target: Pin1 (GST-Pin1) (Homo sapiens, UniProt Q13526)
Assay: Fluorescence polarization (FP) assay, binding to Pin1
Details: competition with fluorescein-labeled peptide probe, 12 hours pre-incubation at 4° C., Kenakin Ki equation

Chain of Pin1 (GST-Pin1) (Q13526 whole entry): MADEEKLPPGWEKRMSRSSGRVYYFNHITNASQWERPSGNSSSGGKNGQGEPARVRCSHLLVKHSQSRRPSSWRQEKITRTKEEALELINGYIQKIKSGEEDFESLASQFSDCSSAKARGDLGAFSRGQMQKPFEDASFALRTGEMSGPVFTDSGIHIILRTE

With `CN(C(=O)CCl)[C@@H](Cc1ccccc1)C(=O)N1CCCC[C@H]1C(=O)N[C@@H](Cc1c[nH]c2ccccc12)C(=O)N[C@@H](CCc1ccccc1)C(=O)N1CCCCC1` [Compound 11-44, (S)—N—((S)-3-(1H-Indol-3-yl)-1-oxo-1-(((S)-1-oxo-4-phenyl-1-(piperidin-1-yl)butan-2-yl)amino)propan-2-yl)-1-(N-(2-chloroacetyl)-N-methyl-L-phenylalanyl)piperidine-2-carboxamide] (ClAc-[NMeF][Pip]W[hPhe]-Piperidide) the Ki (read-out: Ki, μM (FP Assay)) was 1.5 µM.
For `COC(=O)CC[C@H](NC(=O)CCl)C(=O)N1CCCC[C@H]1C(=O)N[C@@H](Cc1c[nH]c2ccccc12)C(=O)N[C@@H](CCCNC(N)=O)C(=O)Nc1ccc2ccccc2c1` [Compound 11-8, Methyl (S)-5-((S)-2-(((S)-3-(1H-indol-3-yl)-1-(((S)-1-(naphthalen-2-ylamino)-1-oxo-5-ureidopentan-2-yl)amino)-1-oxopropan-2-yl)carbamoyl)piperidin-1-yl)-4-(2-chloroacetamido)-5-oxopentanoate] (ClAc-E(OMe)[Pip]W[Cit]-βNA), the Ki (Ki, μM (FP Assay)) was 0.15 µM.
For `C[C@H](OP(=O)(O)O)[C@H](NC(=O)CCl)C(=O)N1CCCC[C@H]1C(=O)N[C@@H](Cc1ccc2ccccc2c1)C(=O)N[C@@H](CCCNC(=N)N)C(N)=O` [Compound 2-5, (2S,3S)-4-((S)-2-(((S)-1-(((S)-1-Amino-5-guanidino-1-oxopentan-2-yl)amino)-3-(naphthalen-2-yl)-1-oxopropan-2-yl)carbamoyl)piperidin-1-yl)-3-(2-chloroacetamido)-4-oxobutan-2-yl dihydrogen phosphate] (ClAc-[alloThr(PO3H2)][Pip][2Nal]R-NH2), the Ki (read-out: Ki, μM (FP Assay)) was 0.13 µM.
For `NC(=O)NCCC[C@H](NC(=O)[C@H](Cc1ccc2ccccc2c1)NC(=O)[C@@H]1CCCCN1C(=O)C[C@H](CCC(=O)O)N1C(=O)C=CC1=O)C(N)=O` [Compound 5-1, (S)-6-((S)-2-(((S)-1-(((S)-1-Amino-1-oxo-5-ureidopentan-2-yl)amino)-3-(naphthalen-2-yl)-1-oxopropan-2-yl)carbamoyl)piperidin-1-yl)-4-(2,5-dioxo-2,5-dihydro-1H-pyrrol-1-yl)-6-oxohexanoic acid], the Ki (read-out: Ki, μM (FP Assay)) was 0.61 µM.
`NC(=O)NCCC[C@H](NC(=O)[C@H](Cc1c[nH]c2ccccc12)NC(=O)[C@@H]1CCCCN1C(=O)[C@H](CCC(=O)O)NC(=O)CCl)C(=O)Nc1ccc2ccccc2c1` [Compound 11-10, (S)-5-((S)-2-(((S)-3-(1H-Indol-3-yl)-1-(((S)-1-(naphthalen-2-ylamino)-1-oxo-5-ureidopentan-2-yl)amino)-1-oxopropan-2-yl)carbamoyl)piperidin-1-yl)-4-(2-chloroacetamido)-5-oxopentanoic acid] (ClAc-E[Pip]W[Cit]-βNA) showed a Ki (read-out: Ki, μM (FP Assay)) of 0.11 µM.
In the case of `Cc1ccc(CNC(=O)[C@H](CCCNC(N)=O)NC(=O)[C@H](Cc2c[nH]c3ccccc23)NC(=O)[C@@H]2CCCCN2C(=O)[C@H](Cc2ccccc2)NC(=O)C(C)Cl)cc1` (stereo partly drawn) [Compound 11-34, (2S)—N—((S)-3-(1H-indol-3-yl)-1-(((S)-1-((4-methylbenzyl)amino)-1-oxo-5-ureidopentan-2-yl)amino)-1-oxopropan-2-yl)-1-((2-chloropropanoyl)-L-phenylalanyl)piperidine-2-carboxamide] (X6-F[Pip]W[Cit]-{NH(4-Me-benzyl)}), the Ki (read-out: Ki, μM (FP Assay)) is reported as greater than 10 µM.
`C[C@H](O)[C@H](NC(=O)CCl)C(=O)N1CCCC[C@H]1C(=O)N[C@@H](Cc1c[nH]c2ccccc12)C(=O)N[C@@H](Cc1ccc(O)cc1)C(N)=O` [Compound 2-26, (S)—N—((S)-1-(((S)-1-Amino-3-(4-hydroxyphenyl)-1-oxopropan-2-yl)amino)-3-(1H-indol-3-yl)-1-oxopropan-2-yl)-1-((2-chloroacetyl)-L-allothreonyl)piperidine-2-carboxamide] (ClAc-[aThr][Pip]WY-NH2) was tested, and the Ki (read-out: Ki, μM (FP Assay)) was 0.299 µM.
Work on `C[C@H]1NC(=O)N[C@H]1CCCCCC(=O)NCCCC[C@H](NC(=O)[C@H](CCCNC(N)=O)NC(=O)[C@H](Cc1c[nH]c2ccccc12)NC(=O)[C@@H]1CCCCN1C(=O)[C@H](CCC(=O)O)NC(=O)CCl)C(N)=O` [Compound 2c-2, (S)-5-((S)-2-(((S)-1-(((S)-1-(((S)-1-Amino-6-(6-((4S,5R)-5-methyl-2-oxoimidazolidin-4-yl)hexanamido)-1-oxohexan-2-yl)amino)-1-oxo-5-ureidopentan-2-yl)amino)-3-(1H-indol-3-yl)-1-oxopropan-2-yl)carbamoyl)piperidin-1-yl)-4-(2-chloroacetamido)-5-oxopentanoic acid] (ClAc-E[Pip]W[Cit]K(X2)-NH2) yielded a Ki (Ki, μM (FP Assay)) of 0.03 µM.
In the case of `COC(=O)CC[C@H](NC(=O)CCl)C(=O)N1CCCC[C@H]1C(=O)N[C@@H](Cc1c[nH]c2ccccc12)C(=O)N[C@@H](Cc1c(F)c(F)c(F)c(F)c1F)C(=O)NCc1ccc(C)cc1` [Compound 11-25, Methyl (S)-5-((S)-2-(((S)-3-(1H-indol-3-yl)-1-(((S)-1-((4-methylbenzyl)amino)-1-oxo-3-(perfluoro-phenyl)propan-2-yl)amino)-1-oxopropan-2-yl)carbamoyl)piperidin-1-yl)-4-(2-chloroacetamido)-5-oxopentanoate] (ClAc-E(OMe)[Pip]W[Phe(F5)]-{NH(4-Me-benzyl)}), the Ki (Ki, μM (FP Assay)) is reported as greater than 10 µM.
Work on `CS(=O)(=O)CC[C@H](NC(=O)CCl)C(=O)N1CCCC[C@H]1C(=O)N[C@@H](Cc1ccc2ccccc2c1)C(=O)N[C@@H](CCC(N)=O)C(N)=O` [Compound 2-3, (S)-2-((S)-2-((S)-1-((S)-2-(2-Chloroacetamido)-4-(methylsulfonyl)butanoyl)piperidine-2-carboxamido)-3-(naphthalen-2-yl)propanamido)pentanediamide] (ClAc-[Met(O2)][Pip][2Nal]Q-NH2) yielded a Ki (read-out: Ki, μM (FP Assay)) greater than 10 µM.
In the case of `NC(=O)CC[C@H](NC(=O)[C@H](Cc1ccc2ccccc2c1)NC(=O)[C@@H]1CCCCN1C(=O)[C@@H](CC(=O)O)NC(=O)CCl)C(N)=O` [Compound 2-1, (R)-3-(2-Chloroacetamido)-4-((S)-2-(((S)-1-(((S)-1,5-diamino-1,5-dioxopentan-2-yl)amino)-3-(naphthalen-2-yl)-1-oxopropan-2-yl)carbamoyl)piperidin-1-yl)-4-oxobutanoic acid] (ClAc-[dD][Pip][2Nal]Q-NH2), the Ki (read-out: Ki, μM (FP Assay)) is reported as greater than 10 µM.
`C[C@H](OP(=O)(O)O)[C@H](NC(=O)CCl)C(=O)N1CCCC[C@H]1C(=O)N[C@@H](Cc1ccc2ccccc2c1)C(=O)N[C@@H](CCC(N)=O)C(N)=O` [Compound 2-4, (2S,3S)-3-(2-Chloroacetamido)-4-((S)-2-(((S)-1-(((S)-1,5-diamino-1,5-dioxopentan-2-yl)amino)-3-(naphthalen-2-yl)-1-oxopropan-2-yl)carbamoyl)piperidin-1-yl)-4-oxobutan-2-yl dihydrogen phosphate] (ClAc-[alloThr(PO3H2)][Pip][2Nal]Q-NH2) showed a Ki (read-out: Ki, μM (FP Assay)) of 1.24 µM.
Compound `NC(=O)[C@H](Cc1c[nH]c2ccccc12)NC(=O)[C@H](Cc1ccc2ccccc2c1)NC(=O)[C@@H]1CCCCN1C(=O)[C@H](CCC(=O)O)NC(=O)CCl` [Compound 2-13, (S)-5-((S)-2-(((S)-1-(((S)-1-Amino-3-(1H-indol-3-yl)-1-oxopropan-2-yl)amino)-3-(naphthalen-2-yl)-1-oxopropan-2-yl)carbamoyl)piperidin-1-yl)-4-(2-chloroacetamido)-5-oxopentanoic acid] (ClAc-E[Pip][2Nal]W-NH2) has a Ki (read-out: Ki, μM (FP Assay)) of 0.13 µM.
